{
  "source": "patent US8637266B2",
  "about": "“Anti bone-loss and anti attachment-loss effects of an oral composition” (Colgate-Palmolive Company, priority 2009, dated 2014)",
  "key": {"[1]": {"tested_on": "MMP-9", "assay": "TNFα-induced MMP-9 production of U937 monocytes (ELISA of conditioned media)", "assay_type": "cell-based, Human", "details": "for MMP-9 production, Average: U937 cells, 24 hours, conditioned media ELISA", "experimental": "U937 cells and RPMI 1640 culture medium were obtained from ATCC. Human MMP-9 ELISA Kit (QUANTIKINE) was obtained from R&D Systems. Fetal Bovine Serum (FBS) was obtained from VWR, and the penicillin-streptomycin solution and Tumor Necrosis Factor α (TNFα) were obtained from Sigma.\nHuman leukemia U937 monocyte lymphoma cells were cultured in RPMI 1640 medium supplemented with 10% FBS and 1% Penicillin-Streptomycin solution. Cells were incubated at 37° C. in a humidified atmosphere containing 5% CO2 and 95% air. Before treatment, cells were transferred into RPMI containing 1% FBS for overnight. Cells were plated on a 48 well plate. Cell culture medium included either TNFα (250 ng/mL), Triclosan(1 ppm), or both agents together or no agent (control). Cells were incubated after treatment for 24 hours. Conditioned media were collected and store at −80° C. until analysis. Samples of conditioned media were subjected to enzyme-linked immunosorbent assays (ELISA) for MMP-9, according to commercial ELISA protocol (FIG. 1)."}, "[2]": {"tested_on": "MMP-13", "assay": "PTH-induced MMP-13 expression in UMR 106-01 osteoblast cells (real time quantitative RT-PCR)", "assay_type": "cell-based, Rat", "experimental": "Parathyroid hormone (rat PTH 1-34) was purchased from Sigma. UMR 106-01 cells were cultured in Eagle's minimal essential medium (EMEM) supplemented with 25 mM Hepes pH 7.4, 1% nonessential amino acids, 100 units/rill penicillin, 100 μg/ml streptomycin. 5% fetal bovine serum. Real Time Quantitative RT-PCR was conducted according to the following method: UMR 106-01 cells were seeded in 12-well plates and cultured for 2-3 days in cell culture media. When cells were confluent, cell culture media was exchanged with 1% fetal bovine serum for overnight for cell starvation. Cells were pre-incubated with triclosan or a triclosan-containing dentifrice (see. e.g., U.S. Pat. Nos. 4,894,220, 5,032,386, and related patents) for 15 min and then incubated with PTH (10^−8 M) for 4 hours.\nTotal RNA was isolated from UMR 106-01 cells stimulated with or without PTH with TRIzol reagent. Total RNA (0.1 μg) was reverse-transcribed to cDNA using the Invitrogen SUPERSCRIPT kit according to the manufacturer's instructions. All cDNAs were amplified by adding 2.5 μl of cDNA to the PCR mixture (22.5 μl) containing each primer (0.2 μM) and 12.5 μl of the Platinum SYBR Green qPCR SuperMix UDG (Invitrogen). The reactions were preincubated at 50° C. for 2 minutes to decontaminate dU-containing DNA by UDG, then at 95° C. for 2 minutes to inactivate UDG and activate Taq. The PCR program continued 49 cycles of denaturation at 95° C. for 15 seconds, annealing and elongation of the primers at 60° C. for 30 seconds. Relative quantification of gene expression was determined by using the 2-delta delta CT method where fold changes in gene expression are relative to control samples. All samples were normalized to β-actin.\nAll results were expressed as means±standard error (S.E.) of triplicate measurements with all experiments being repeated at least three times. Statistical analyses were carried out using the Student's t test."}, "[3]": {"details": "with PEG 600, weight ratio of 25 triclosan:1 PEG 600, versus absence of polyethylene glycol; cited from earlier work"}},
  "data": [
    {"compound": "TNFα", "values": [
      {"measurement": "MMP-9 production, Average", "setting": "[1]; TNFα 250 ng/mL alone", "value": 0.275, "unit": "ng/mL"}
    ]},
    {"compound": "Oc1cc(Cl)ccc1Oc1ccc(Cl)cc1Cl", "note": "[Triclosan, 2,4,4′-trichloro-2′-hydroxydiphenyl ether]", "values": [
      {"measurement": "effect on MMP-9 level in TNFα stimulated U937 cells", "setting": "[1]; Triclosan at 1 ppm", "value": "significantly reduced"},
      {"measurement": "MMP-9 production, Average", "setting": "[1]; TNFα 250 ng/mL + Triclosan 1 ppm", "value": 0.155, "unit": "ng/mL"},
      {"measurement": "MMP-13 expression, Average (fold change relative to control, normalized to β-actin)", "setting": "[2]; Triclosan 1 ppm + PTH 10^−8 M, 15 min pre-incubation, 4 hours", "value": 35.38},
      {"measurement": "MMP-13 expression, Average (fold change relative to control, normalized to β-actin)", "setting": "[2]; Triclosan 1 ppm, without PTH", "value": 0.4166},
      {"measurement": "MMP-13 expression, Average (fold change relative to control, normalized to β-actin)", "setting": "[2]; Triclosan 4 ppm + PTH 10^−8 M, 15 min pre-incubation, 4 hours", "value": 10.56},
      {"measurement": "MMP-13 expression, Average (fold change relative to control, normalized to β-actin)", "setting": "[2]; Triclosan 4 ppm, without PTH", "value": 1.424},
      {"measurement": "MMP-13 expression, Average (fold change relative to control, normalized to β-actin)", "setting": "[2]; Triclosan 10 ppm + PTH 10^−8 M, 15 min pre-incubation, 4 hours", "value": 3.012},
      {"measurement": "MMP-13 expression, Average (fold change relative to control, normalized to β-actin)", "setting": "[2]; Triclosan 10 ppm, without PTH", "value": 1.518},
      {"measurement": "effect on MMP-13 expression in PTH stimulated UMR cells", "setting": "[2]; Triclosan at 10 ppm, 4 ppm and 1 ppm", "value": "significantly reduced"},
      {"measurement": "factor by which antibacterial activity is reduced", "setting": "[3]", "value": "10-20"}
    ]}
  ]
}
